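96-well plates; 48 h exposure; 5 concentrations. Endpoints by linear interpolation between flanking doses. Not reached: highest tested concentration assigned. TGI denotes the concentration required for complete inhibition of growth.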
Experiments:
Test in all cases: growth of human tumour cells (NCI), 48 h
[1] = test system: HL-60(TB) leukemia
[2] = test system: LXFL 529 NSCLC
[3] = test system: K-562 leukemia
[4] = test system: M19-MEL melanoma
[5] = test system: KM12 colon
[6] = test system: SW-620 colon
[7] = test system: EKVX NSCLC
[8] = test system: ACHN renal
[9] = test system: MALME-3M melanoma
[10] = test system: SF-295 CNS
[11] = test system: 786-0 renal
[12] = test system: HOP-92 NSCLC
[13] = test system: OVCAR-5 ovarian
[14] = test system: NCI-H522 lung
[15] = test system: IGROV1 ovarian
[16] = test system: OVCAR-3 ovarian
[17] = test system: SF-268 CNS
[18] = test system: M14 melanoma
[19] = test system: HCC-2998 colon
[20] = test system: SNB-78 CNS
[21] = test system: RPMI-8226 leukemia
[22] = test system: SF-539 CNS
[23] = test system: LOX IMVI melanoma
[24] = test system: HOP-62 NSCLC
[25] = test system: RXF-631 renal
[26] = test system: SK-MEL-2 melanoma
[27] = test system: HOP-18 NSCLC
[28] = test system: HCT-116 colon
[29] = test system: NCI-H226 lung
[30] = test system: SN12C renal
[31] = test system: SK-OV-3 ovarian
[32] = test system: SNB-19 CNS
[33] = test system: SK-MEL-28 melanoma
[34] = test system: UACC-257 melanoma
[35] = test system: U251 CNS
[36] = test system: A498 renal
[37] = test system: DLD-1 colon
[38] = test system: UACC-62 melanoma
[39] = test system: RXF 393 renal
[40] = test system: HT29 colon
[41] = test system: DMS 114 small cell lung
[42] = test system: NCI-H460 lung
[43] = test system: HCT-15 colon
[44] = test system: NCI-H23 lung
[45] = test system: TK-10 renal
[46] = test system: OVCAR-4 ovarian
[47] = test system: OVCAR-8 ovarian
[48] = test system: CCRF-CEM leukemia
[49] = test system: KM20L2 colon
[50] = test system: UO-31 renal
[51] = test system: COLO 205 colon
[52] = test system: MOLT-4 leukemia
[53] = test system: SNB-75 CNS
[54] = test system: A549 NSCLC
[55] = test system: SR leukemia
[56] = test system: SK-MEL-5 melanoma
[57] = test system: CAKI-1 renal
[58] = test system: DMS 273 small cell lung

`O=C(OC1CC(n2cc(F)c(=O)[nH]c2=O)OC1CSC(=O)c1ccccc1)c1ccccc1` (configuration not stated) was tested, and the TGI [1] was 53.3 µM, the TGI [2] was over 100 µM and the TGI [3] was over 100 µM. The TGI [4] was 67 µM, the TGI [5] was 91.2 µM and the TGI [6] was over 100 µM. The TGI [7] was 90.5 µM, the TGI [8] was over 100 µM and the TGI [9] was 84.5 µM. The TGI [10] was over 100 µM, the TGI [11] was over 100 µM and the TGI [12] was 56 µM. For the same molecule, the TGI [13] was over 100 µM, the TGI [14] was 87 µM and the TGI [15] was over 100 µM. It also gave a TGI [16] of 53.3 µM, a TGI [17] of 68.8 µM and a TGI [18] of over 100 µM. The TGI [19] was 75.2 µM, the TGI [20] was over 100 µM and the TGI [21] was 57.4 µM. The TGI [22] was over 100 µM, the TGI [23] was over 100 µM and the TGI [24] was over 100 µM. The TGI [25] was 40.3 µM, the TGI [26] was over 100 µM and the TGI [27] was 97.4 µM. It also gave a TGI [28] of over 100 µM, a TGI [29] of 75.9 µM and a TGI [30] of over 100 µM. The TGI [31] was over 100 µM, the TGI [32] was over 100 µM and the TGI [33] was over 100 µM. The TGI [34] was 87.6 µM, the TGI [35] was 49.8 µM and the TGI [36] was over 100 µM. The TGI [37] was over 100 µM, the TGI [38] was over 100 µM and the TGI [39] was 81.1 µM. For the same molecule, the TGI [40] was 34.4 µM, the TGI [41] was over 100 µM and the TGI [42] was over 100 µM. It also gave a TGI [43] of over 100 µM, a TGI [44] of over 100 µM and a TGI [45] of over 100 µM. It also gave a TGI [46] of over 100 µM, a TGI [47] of over 100 µM and a TGI [48] of over 100 µM. The TGI [49] was 33.9 µM, the TGI [50] was over 100 µM and the TGI [51] was 88.7 µM. It also gave a TGI [52] of 81.1 µM, a TGI [53] of 65.6 µM and a TGI [54] of 92.4 µM.
For `CN(C)Cc1cc(/C(=C(\C#N)c2ccccc2)c2ccc(O)cc2)ccc1O`, the TGI [2] was 34.7 µM, the TGI [3] was 40.4 µM and the TGI [4] was 31.2 µM. It also gave a TGI [5] of 61 µM, a TGI [6] of 73.7 µM and a TGI [55] of 31.8 µM. It also gave a TGI [7] of over 100 µM, a TGI [8] of 32.4 µM and a TGI [9] of 29.8 µM. For the same molecule, the TGI [10] was 49.7 µM, the TGI [11] was 35.6 µM and the TGI [12] was 52.4 µM. For the same molecule, the TGI [13] was 72.4 µM, the TGI [14] was 26.1 µM and the TGI [15] was 99.5 µM. For the same molecule, the TGI [16] was 50.3 µM, the TGI [17] was 60.3 µM and the TGI [18] was 23.1 µM. For the same molecule, the TGI [56] was 28.9 µM, the TGI [19] was 32.4 µM and the TGI [20] was 94.9 µM. The TGI [21] was 46.4 µM, the TGI [23] was 26.8 µM and the TGI [24] was 33.9 µM. It also gave a TGI [25] of 37.2 µM, a TGI [26] of 33.9 µM and a TGI [27] of 66.5 µM. The TGI [28] was 25.2 µM, the TGI [29] was 56.9 µM and the TGI [30] was 59.6 µM. For the same molecule, the TGI [31] was 87.5 µM, the TGI [32] was over 100 µM and the TGI [33] was 26.8 µM. It also gave a TGI [34] of 29.9 µM, a TGI [35] of 50.1 µM and a TGI [36] of over 100 µM. The TGI [37] was 86.1 µM, the TGI [38] was 33.4 µM and the TGI [39] was 14 µM. It also gave a TGI [40] of 44.8 µM, a TGI [41] of 29.4 µM and a TGI [42] of 48.9 µM. The TGI [43] was 96.5 µM, the TGI [44] was 52.5 µM and the TGI [45] was 79.4 µM. For the same molecule, the TGI [46] was 70.5 µM, the TGI [47] was 48.5 µM and the TGI [48] was 45.5 µM. For the same molecule, the TGI [49] was over 100 µM, the TGI [50] was 60.2 µM and the TGI [51] was 31.9 µM. It also gave a TGI [52] of 39.3 µM, a TGI [57] of 85.5 µM and a TGI [53] of 63.6 µM. The TGI [58] was 36.4 µM and the TGI [54] was over 100 µM.
Work on `COC(=O)C(C(=O)C(=O)Nc1nc2ccc([N+](=O)[O-])cc2s1)c1nc2ccc(Cl)cc2[nH]c1=O` (configuration not stated) yielded a TGI [1] of over 100 µM, a TGI [2] of over 100 µM and a TGI [3] of over 100 µM. For the same molecule, the TGI [4] was over 100 µM, the TGI [5] was over 100 µM and the TGI [6] was over 100 µM. The TGI [55] was over 100 µM, the TGI [7] was over 100 µM and the TGI [8] was over 100 µM. The TGI [9] was over 100 µM, the TGI [10] was over 100 µM and the TGI [11] was over 100 µM. The TGI [13] was over 100 µM, the TGI [14] was over 100 µM and the TGI [15] was over 100 µM. The TGI [16] was over 100 µM, the TGI [17] was over 100 µM and the TGI [18] was over 100 µM. For the same molecule, the TGI [56] was over 100 µM, the TGI [19] was over 100 µM and the TGI [20] was over 100 µM. It also gave a TGI [21] of over 100 µM, a TGI [22] of over 100 µM and a TGI [23] of over 100 µM. It also gave a TGI [24] of over 100 µM, a TGI [25] of over 100 µM and a TGI [26] of over 100 µM. For the same molecule, the TGI [27] was over 100 µM, the TGI [28] was over 100 µM and the TGI [29] was over 100 µM. For the same molecule, the TGI [30] was over 100 µM, the TGI [31] was over 100 µM and the TGI [32] was over 100 µM. The TGI [33] was over 100 µM, the TGI [34] was over 100 µM and the TGI [35] was over 100 µM. The TGI [36] was over 100 µM, the TGI [37] was over 100 µM and the TGI [38] was over 100 µM. The TGI [39] was over 100 µM, the TGI [40] was over 100 µM and the TGI [41] was over 100 µM. The TGI [42] was over 100 µM, the TGI [43] was over 100 µM and the TGI [44] was over 100 µM. The TGI [45] was over 100 µM, the TGI [46] was over 100 µM and the TGI [47] was over 100 µM. It also gave a TGI [48] of over 100 µM, a TGI [49] of over 100 µM and a TGI [50] of over 100 µM. The TGI [51] was over 100 µM, the TGI [52] was over 100 µM and the TGI [57] was over 100 µM. It also gave a TGI [53] of over 100 µM, a TGI [58] of over 100 µM and a TGI [54] of over 100 µM.

Source: PubChem BioAssay (NCI)
